From paper PMC10870767, “Extraction, Purification, and Characterization of Olive (Olea europaea L., cv. Chemlal) Polyphenol Oxidase” (Journal of Agricultural and Food Chemistry, 2024)
Several values for one entry are separate records, joined by “and”; a condition that tells them apart may be missing. Equal values may be shown once. Read-outs that look alike come from different tables or passages of the source.

What was measured:
[1] = test system: OePPO1; assay: Effect of metal ions on OePPO1 activity; assay type: biochemical, Olea europaea L., cv. Chemlal
[2] = molecular target: T1, olive polyphenol oxidase (OePPO) (Olea europaea, UniProt A0A8S0TLT4); assay: Enzyme kinetics and substrate specificity of purified OePPO; assay type: biochemical, Olea europaea L., cv. Chemlal; settings: for kcat: substrate of purified OePPO, 50 mM sodium phosphate buffer pH 7.5, 5 mM SDS, 25 °C
Description: (§1) OePPO activity measurements were carried out spectrophotometrically at 25 °C using a 96-well microplate reader (Infinite M200, Tecan). The assay mixture, with a volume of 200 μL, was monitored for the increase in absorbance at 410 nm as the enzyme converted catechol, starting from ∼25 s after mixing (time required for pipetting and initiating the microplate reader) and continuing until the reaction curve reached a plateau phase (after ∼15 min). The standard reaction mixture consisted of 0.5 μg of enzyme and 10 mM catechol in 50 mM sodium phosphate buffer (pH 7.5) along with the optimal concentration of SDS (5 mM) as determined. […] OePPO activity was assessed by calculating the slope of the initial linear segment of the experimental curves, where the absorbance was plotted against time. The activity was expressed in U/mg, with one unit of enzymatic activity (U) defined as the amount of enzyme that catalyzed the formation of 1 μmol of quinones per minute (1 U = 1 μmol/min). All experiments were conducted in triplicate, and the protein concentrations in the enzyme solutions were determined using the Bradford method[15] with bovine serum albumin as a standard.

[3] = molecular target: T1, olive polyphenol oxidase (OePPO); assay: Effect of inhibitors on OePPO activity; assay type: biochemical, Olea europaea L., cv. Chemlal; settings: 10 mM catechol; for IC100: read-out: concentration for complete suppression/inhibition of OePPO activity
Description: as §1
The optimum concentration range for each inhibitor was established through preliminary experiments (data not shown). OePPO activity was measured using the same assay conditions previously described, and the results were expressed as the percentage of residual activity relative to the control mixture (100%) without inhibitors. The half inhibitory concentration (IC50) was determined for each inhibitor using nonlinear regression.

[4] = test system: apricot PPO; settings: cited from earlier work; for residual activity: 10 mM inhibitor
[5] = test system: mango PPO; settings: cited from earlier work; for residual activity: 10 mM inhibitor
[6] = test system: blueberry PPO; set-up: method as in PMID 27719900; settings: cited from earlier work
[7] = molecular target: T1, olive polyphenol oxidase (OePPO); assay: Effect of SDS on OePPO activity (activation of latent enzyme); assay type: biochemical, Olea europaea L., cv. Chemlal
Description: as §1
The effect of different concentrations of SDS (0–100 mM) on OePPO activity was investigated.

[8] = test system: banana PPO; set-up: method as in doi:10.1021/jf980473d; settings: cited from earlier work
[9] = 1 mM metal salt, 50 mM sodium citrate buffer, 5 mM SDS, control without metal ions = 100%
[10] = 5 mM metal salt, 50 mM sodium citrate buffer, 5 mM SDS, control without metal ions = 100%
[11] = 10 mM metal salt, 50 mM sodium citrate buffer, 5 mM SDS, control without metal ions = 100%
[12] = 100 mM metal salt, 50 mM sodium citrate buffer, 5 mM SDS, control without metal ions = 100%

T1 sequence (A0A8S0TLT4 entry or part of it): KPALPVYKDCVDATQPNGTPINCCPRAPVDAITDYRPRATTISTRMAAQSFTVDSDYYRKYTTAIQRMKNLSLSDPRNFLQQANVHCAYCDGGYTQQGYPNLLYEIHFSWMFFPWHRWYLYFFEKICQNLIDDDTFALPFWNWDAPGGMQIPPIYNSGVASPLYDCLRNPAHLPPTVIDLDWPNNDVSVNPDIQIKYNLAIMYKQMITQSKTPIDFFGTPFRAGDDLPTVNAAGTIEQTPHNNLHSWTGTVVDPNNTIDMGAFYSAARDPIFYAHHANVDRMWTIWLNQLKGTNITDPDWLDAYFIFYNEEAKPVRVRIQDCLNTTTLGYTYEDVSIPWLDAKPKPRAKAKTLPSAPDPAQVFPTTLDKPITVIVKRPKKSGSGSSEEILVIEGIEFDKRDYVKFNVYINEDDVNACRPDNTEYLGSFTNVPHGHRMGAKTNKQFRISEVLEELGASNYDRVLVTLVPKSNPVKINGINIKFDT

Structure (SMILES) | relative activity [1, 9] [%] | relative activity [1, 10] [%] | relative activity [1, 11] [%] | relative activity [1, 12] [%] | further results
[Cl][Cr]([Cl])[Cl] [CrCl3] | 80 ± 2.8 | 63 ± 1.6 | 0.0 ± 0.00 | 0.0 ± 0.00 | relative activity ([1]; 1 mM metal salt, 50 mM sodium citrate buffer, 5 mM SDS, control without metal ions = 100%, listed as Cr^3+): 80%; relative activity ([1]; 10 mM metal salt, 50 mM sodium citrate buffer, 5 mM SDS, control without metal ions = 100%, listed as Cr^3+): complete suppression
NCCc1ccc(O)cc1 [tyramine] | – | – | – | – | kcat [2]: 0.093 ± 0.005 s^–1
O=S(=O)([O-])[O-].[Ni+2] [NiSO4] | 103 ± 2.3 | 101.3 ± 0.57 | 92 ± 1.7 | 88 ± 4.3 | –
O=C1O[C@H]([C@@H](O)CO)C(O)=C1O [ascorbic acid] | – | – | – | – | IC100 ([3]; pH 7.5, 5 mM SDS): 1000 µM; concentration with complete inhibitory effect [4]: around 1 mM; concentration with complete inhibitory effect [5]: around 1 mM; concentration with complete inhibitory effect [6]: around 1 mM
O=C(O)CCC(=O)O [succinic acid] | – | – | – | – | residual activity [4]: exceeding 80%; residual activity [5]: > 60%
[Ca+2].[Cl-].[Cl-] [CaCl2] | 103 ± 2.0 | 96 ± 2.8 | 93 ± 2.9 | 66 ± 4.1 | –
[Cl][Al]([Cl])[Cl] [AlCl3] | 98 ± 1.9 | 90 ± 1.2 | 82 ± 2.7 | 0.0 ± 0.00 | –
[Cl][Mn][Cl] [MnCl2] | 99 ± 2.1 | 92.1 ± 0.84 | 60 ± 3.2 | 0.0 ± 0.00 | –
O=c1cc(CO)occ1O [Kojic acid, kojic acid] | – | – | – | – | inhibition of enzymatic browning ([5]; 10 mM): effectively inhibiting enzymatic browning
[Cl-].[K+] [KCl] | 98 ± 3.8 | 98 ± 1.4 | 96 ± 2.1 | 64 ± 2.8 | –
N[C@@H](CS)C(=O)O [L-cysteine] | – | – | – | – | concentration with complete inhibitory effect [4]: around 1 mM; concentration with complete inhibitory effect [5]: around 1 mM; concentration with complete inhibitory effect [6]: around 1 mM
O=S(O)S(=O)(=O)O [sodium metabisulfite] | – | – | – | – | IC100 ([3]; pH 7.5, 5 mM SDS): 1000 µM; concentration with complete inhibitory effect [4]: around 1 mM; concentration with complete inhibitory effect [5]: around 1 mM; concentration with complete inhibitory effect [6]: around 1 mM
[Cl][Fe][Cl] [FeCl2] | 87 ± 2.3 | 74 ± 1.7 | 56 ± 2.0 | 22 ± 6.6 | relative activity ([1]; 1 mM metal salt, 50 mM sodium citrate buffer, 5 mM SDS, control without metal ions = 100%, listed as Fe^2+): 87%
[Cl-].[Na+] [NaCl] | – | – | – | – | relative activity [1]: 101 ± 3.1% and 99 ± 2.3% and 103 ± 2.8% and 88 ± 5.4%
O=S(=O)([O-])[O-].[Cu+2] [CuSO4] | 106 ± 4.3 | 112 ± 1.9 | 110 ± 3.9 | 37 ± 2.6 | relative activity ([1]; 5 mM metal salt, 50 mM sodium citrate buffer, 5 mM SDS, control without metal ions = 100%, listed as Cu^2+): 112%; relative activity ([1]; 100 mM metal salt, 50 mM sodium citrate buffer, 5 mM SDS, control without metal ions = 100%, listed as Cu^2+): drastically reduced
[Cl-].[Cl-].[Mg+2] [MgCl2] | 100 ± 2.7 | 97 ± 1.4 | 95 ± 1.8 | 72 ± 3.4 | –
NCCc1ccc(O)c(O)c1 [dopamine] | – | – | – | – | kcat [2]: 13.98 ± 0.07 s^–1
O=C(O)CC(O)(CC(=O)O)C(=O)O [citric acid] | – | – | – | – | residual activity [4]: exceeding 80%; residual activity [5]: > 60%
NC(=S)Nc1ccccc1 [N-phenylthiourea] | – | – | – | – | concentration that completely inhibited enzymatic activity ([3]; pH 7.5, 5 mM SDS): 50 µM
[Cl-].[Cl-].[Zn+2] [ZnCl2] | 99 ± 1.2 | 108.9 ± 0.92 | 107.3 ± 0.54 | 15 ± 5.1 | relative activity ([1]; 5 mM metal salt, 50 mM sodium citrate buffer, 5 mM SDS, control without metal ions = 100%, listed as Zn^2+): 109%; relative activity ([1]; 100 mM metal salt, 50 mM sodium citrate buffer, 5 mM SDS, control without metal ions = 100%, listed as Zn^2+): drastically reduced
N[C@@H](CCC(=O)N[C@@H](CS)C(=O)NCC(=O)O)C(=O)O [glutathione, reduced, reduced glutathione] | – | – | – | – | IC50 ([3]; 50 mM sodium phosphate buffer pH 7.5, 5 mM SDS, 25 °C, nonlinear regression): 62 ± 3 µM; concentration for complete suppression/inhibition of OePPO activity ([3]; pH 7.5, 5 mM SDS): 1 mM; concentration with complete inhibitory effect [4]: around 1 mM; concentration with complete inhibitory effect [5]: around 1 mM; concentration with complete inhibitory effect [6]: around 1 mM
OCCc1ccc(O)cc1 [tyrosol] | – | – | – | – | processed faster than tyramine ([2]; monophenolase activity, compared with tyramine): > 10 times
CCCCCCCCCCCCOS(=O)(=O)[O-].[Na+] [SDS, sodium lauryl sulfate] | – | – | – | – | increase of OePPO activity versus absence of SDS ([7]; 5 mM SDS, phosphate buffer pH 7.5): ~10 fold; OePPO activity compared to the absence of SDS ([7]; 100 mM SDS, phosphate buffer pH 7.5): three times the activity; optimal SDS concentration for full activation of latent OePPO ([7]; phosphate buffer pH 7.5, catechol): 5 mM; SDS concentration for full activation of latent PPO [4]: 2 mM; SDS concentration necessary to achieve full activity [5]: 6.93 mM; SDS concentration for full activation of latent PPO [8]: 2 mM
